Experimental data from publication PMC10199020 (Nature Communications, 2023).
Bridge positions count the residues as written; N and C are the ends. Square brackets hold non-standard residues; d marks the D form. Peptide text beside a SMILES is read from it. * marks the point of attachment. 5TAMRA = CN(C)c1ccc2c(c1)Oc1cc(N(C)C)ccc1C21OC(=O)c2cc(C(=O)*)ccc21; 2Nal = N[C@@H](Cc1ccc2ccccc2c1)C(=O)O; Pen = CC(C)(S)[C@H](N)C(=O)O; Aib = CC(C)(N)C(=O)O

Key:
NL-IL23R with IL12Rβ1 = target: T1, NL-IL23R with IL12Rβ1 (Homo sapiens, UniProt P42701+Q5VWK5); assay: P630-TMR NanoBRET binding assay, NL-IL23R with IL12Rβ1; settings: for BRET ratio, Specific (Mean) / BRET ratio, Non-specific (Mean): Fig. 2d, NL-IL23R with IL12Rβ1; for BRET ratio, Non-specific (Mean): with 10 μM P630; for BRET ratio with non-specific binding subtracted (Mean): Figure 2 sheet Panel f; for BRET ratio with non-specific binding subtracted (Mean) / % maximum BRET ratio / % of P630-TMR specific Bmax (Mean): NL-IL23R + IL12RB1; for % maximum BRET ratio / % of P630-TMR specific Bmax (Mean): Figure 2 sheet Panel g, Fig. 3d; for Mean NanoBRET binding signal (Figure 7 panel b): NL-IL23R +IL12RB1
T1 construct: expressed in transfected cells; host or cells: HEK293T (ATCC CRL-3216), transient transfection
T1 sequence (Q5VWK5 24-629, other chains not shown): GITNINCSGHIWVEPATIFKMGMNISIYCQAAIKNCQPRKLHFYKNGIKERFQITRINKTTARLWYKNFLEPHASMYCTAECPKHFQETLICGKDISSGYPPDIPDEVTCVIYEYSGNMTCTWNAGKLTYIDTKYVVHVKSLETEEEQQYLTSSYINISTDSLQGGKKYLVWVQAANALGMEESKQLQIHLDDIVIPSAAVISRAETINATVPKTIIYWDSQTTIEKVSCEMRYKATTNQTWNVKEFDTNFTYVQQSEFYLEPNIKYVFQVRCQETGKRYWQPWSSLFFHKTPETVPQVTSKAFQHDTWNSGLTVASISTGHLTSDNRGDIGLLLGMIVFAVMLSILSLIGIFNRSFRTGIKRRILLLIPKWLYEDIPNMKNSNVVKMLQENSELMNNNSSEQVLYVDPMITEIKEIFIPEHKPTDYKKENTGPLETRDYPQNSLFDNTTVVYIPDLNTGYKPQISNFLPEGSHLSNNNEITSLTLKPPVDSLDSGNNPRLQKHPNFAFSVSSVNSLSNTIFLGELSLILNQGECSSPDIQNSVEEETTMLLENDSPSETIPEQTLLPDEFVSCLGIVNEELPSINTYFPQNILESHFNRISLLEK
Excerpt: A standard curve was used to predict the expression level of NanoLuc labelled receptor in each experiment (Supplementary Fig. 1).
Fig. 2 Creation and characterisation of a fluorescent cyclic peptide probe for IL23R. […] Data are normally mean ± SEM from five independent experiments. Details on absolute number of data points included for each concentration are provided in the associated Source Data file. In each individual saturation experiment triplicate determinations were normally made for total binding and duplicate measurements were made for non-specific binding.
(§1) Media was removed from white 96-well microplates containing transfected cells and replaced with fluoroprobe in the presence or absence of antagonist in 50 μL Hanks Balanced Salt Solution (HBSS) with 1 mg/mL BSA (Merck). After a 1-hour incubation at 37 °C without CO2, 5 μL of HBSS containing 77 μM furimizine was added to each well (final concentration 7 μM), the plate incubated for 5-minutes and the BRET signal measured using a PheraStar FS plate reader (BMG Labtech; data acquisition software version 5.41; MARS analysis software version 3.32) with a 450 ± 30 nm and >550 nm long pass filters.
Ligand binding data were fitted with the equation:2 BRETratio=Bmax[A]/([A]+KD)+(BA+C). Where ‘Bmax’ is the maximum specific binding BRET signal, ‘[A]’ is fluorescent probe concentration, ‘B’ is the non-specific binding component’s slope and ‘C’ is the Y intercept.
Specific binding data was generated by subtracting the BRET values gained in the presence of an excess of unlabelled probe from the BRET ratios gained in the absence of unlabelled probe. Specific binding data were fit using the equation:3 Y=Bmax[B]/(B+KD) where ‘Bmax’ is the maximum specific binding signal of the curve and ‘[B]’ is the concentration of fluorescent probe.

[1] = target: HiBit-IL23R and LgBit-IL12Rβ1 (Homo sapiens, UniProt Q5VWK5); assay: NanoBiT BRET binding assay; design: expressed in transfected cells; host or cells: HEK293T, transient transfection; settings: for BRET ratio, Non-specific (Mean) / BRET ratio, Specific (Mean): Fig. 3b, NanoBiT complemented receptors; for % of P630-TMR specific Bmax (Mean): Fig. 3d, HiBit-IL23R + LgBit-IL12RB1
HiBit-IL23R and LgBit-IL12Rβ1, sequence (Q5VWK5 24-629, other chains not shown): as above
Excerpt: Finally, we utilised a NanoBiT BRET system in which a complemented luciferase with fragments bound to both receptor subunits (Fig. 3) can be used as a BRET donor to measure interactions with binary receptor complexes.
Data in b are mean ± SEM from three independent experiments. In each individual experiment, triplicate determinations were made for total binding and duplicate or triplicate determinations made for non-specific binding. Data in c are the mean values obtained in five independent experiments, each conducted with six replicates. […] Data in d are the mean ± SEM from five (NL-IL23R and NL-23R + IL12Rβ1) or three (HiBit-IL23R + LgBit-IL12Rβ1) independent experiments. Source data are provided as a Source Data file.
as §1

C115Y mutated IL23R = target: T2, C115Y mutated IL23R (Homo sapiens, UniProt P42701+Q5VWK5, C115Y); assay: P630-TMR NanoBRET binding assay, C115Y mutant; settings: for Mean NanoBRET binding signal (Figure 7 panel b): NL-IL23R (C115Y) + IL12Rβ1
T2 construct: expressed in transfected cells; host or cells: HEK293T, transient transfection
T2 sequence (Q5VWK5 24-629 C115Y, other chains not shown): as the sequence (Q5VWK5 24-629, other chains not shown) above, with C92Y counted along it
Protocol: Data are mean ± SEM from five (C115Y) or four (wildtype) independent experiments conducted in duplicate or triplicate. Details on absolute number of data points included for each concentration are provided in the associated Source Data file.
as §1, with “filters. P630-TMR binding assays were normalised to a final DMSO concentration of 0.1%.” for “filters.”

## COc1ccc(C[C@H](NC(=O)[C@H]2NC(=O)[C@H](CCC(N)=O)NC(=O)[C@H](Cc3c[nH]c4ccccc34)NC(=O)[C@H]([C@@H](C)O)NC(=O)[C@H](CC(N)=O)NC(=O)[C@@H](NC(C)=O)C(C)(C)SSC2(C)C)C(=O)N[C@@H](Cc2ccc3ccccc3c2)C(=O)NC(C)(C)C(=O)N[C@@H](CCC(=O)O)C(=O)N[C@@H](CC(N)=O)C(=O)N[C@@H](CC(N)=O)C(=O)N[C@@H](CCCCNC(=O)c2ccc3c(c2)C(=O)OC32c3ccc(N(C)C)cc3Oc3cc(N(C)C)ccc32)C(N)=O)cc1 [P630-TMR] (Ac-[Pen]NTWQ[Pen]Y(Me)[2Nal][Aib]ENNK(5TAMRA)-NH2; disulfide 1-6)
NL-IL23R with IL12Rβ1; P630-TMR 0.457247 nM
  BRET ratio, Specific (Mean): 0.2512
  BRET ratio, Non-specific (Mean): 0.2426
  BRET ratio with non-specific binding subtracted (Mean): 0.01279
  % maximum BRET ratio / % of P630-TMR specific Bmax (Mean): 1.58%
NL-IL23R with IL12Rβ1; P630-TMR 1.37174 nM
  BRET ratio, Specific (Mean): 0.271
  BRET ratio, Non-specific (Mean): 0.2389
  BRET ratio with non-specific binding subtracted (Mean): 0.03163
  % maximum BRET ratio / % of P630-TMR specific Bmax (Mean): 3.558%
NL-IL23R with IL12Rβ1; P630-TMR 4.11523 nM
  BRET ratio, Specific (Mean): 0.315
  BRET ratio, Non-specific (Mean): 0.241
  BRET ratio with non-specific binding subtracted (Mean): 0.07414
  % maximum BRET ratio / % of P630-TMR specific Bmax (Mean): 8.249%
NL-IL23R with IL12Rβ1; P630-TMR 12.3457 nM
  BRET ratio, Specific (Mean): 0.4472
  BRET ratio, Non-specific (Mean): 0.2439
  BRET ratio with non-specific binding subtracted (Mean): 0.203
  % maximum BRET ratio / % of P630-TMR specific Bmax (Mean): 22.4565%
NL-IL23R with IL12Rβ1; P630-TMR 37.037 nM
  BRET ratio, Specific (Mean): 0.6615
  BRET ratio, Non-specific (Mean): 0.2477
  BRET ratio with non-specific binding subtracted (Mean): 0.4147
  % maximum BRET ratio / % of P630-TMR specific Bmax (Mean): 45.1459%
NL-IL23R with IL12Rβ1; P630-TMR 111.111 nM
  BRET ratio, Specific (Mean): 1.003
  BRET ratio, Non-specific (Mean): 0.2531
  BRET ratio with non-specific binding subtracted (Mean): 0.7498
  % maximum BRET ratio / % of P630-TMR specific Bmax (Mean): 80.9844%
NL-IL23R with IL12Rβ1; P630-TMR 1000 nM
  BRET ratio, Specific (Mean): 1.323
  BRET ratio, Non-specific (Mean): 0.3233
  BRET ratio with non-specific binding subtracted (Mean): 1.0032
  % maximum BRET ratio / % of P630-TMR specific Bmax (Mean): 106.516%
NL-IL23R with IL12Rβ1; P630-TMR 3000 nM
  BRET ratio, Specific (Mean): 1.6368
  BRET ratio, Non-specific (Mean): 0.4914
  BRET ratio with non-specific binding subtracted (Mean): 1.107
  % maximum BRET ratio / % of P630-TMR specific Bmax (Mean): 100.024%
NL-IL23R with IL12Rβ1; P630-TMR […]
  BRET ratio, Non-specific (Mean): 0.2709
NL-IL23R with IL12Rβ1; [P630-TMR] 0.8 nM
  Mean NanoBRET binding signal (Figure 7 panel b): -0.0001896
NL-IL23R with IL12Rβ1; [P630-TMR] 4 nM
  Mean NanoBRET binding signal (Figure 7 panel b): 0.1611
NL-IL23R with IL12Rβ1; [P630-TMR] 20 nM
  Mean NanoBRET binding signal (Figure 7 panel b): 0.6859
NL-IL23R with IL12Rβ1; [P630-TMR] 100 nM
  Mean NanoBRET binding signal (Figure 7 panel b): 1.691
NL-IL23R with IL12Rβ1; [P630-TMR] 500 nM
  Mean NanoBRET binding signal (Figure 7 panel b): 2.556
NL-IL23R with IL12Rβ1; [P630-TMR] 2000 nM
  Mean NanoBRET binding signal (Figure 7 panel b): 2.7354
NL-IL23R with IL12Rβ1; NL-IL23R and IL12Rβ1, mean ± SEM
  Kd: 51.1 ± 7.3 nM
[1]; P630-TMR 1.37174 nM
  BRET ratio, Non-specific (Mean): 0.09875
  BRET ratio, Specific (Mean): 0.105
  % of P630-TMR specific Bmax (Mean): 2.813%
[1]; P630-TMR 4.11523 nM
  BRET ratio, Non-specific (Mean): 0.09641
  BRET ratio, Specific (Mean): 0.1138
  % of P630-TMR specific Bmax (Mean): 8.07%
[1]; P630-TMR 12.3457 nM
  BRET ratio, Non-specific (Mean): 0.09986
  BRET ratio, Specific (Mean): 0.141
  % of P630-TMR specific Bmax (Mean): 19.2912%
[1]; P630-TMR 37.037 nM
  BRET ratio, Non-specific (Mean): 0.1012
  BRET ratio, Specific (Mean): 0.1913
  % of P630-TMR specific Bmax (Mean): 41.1077%
[1]; P630-TMR 111.111 nM
  BRET ratio, Non-specific (Mean): 0.1006
  BRET ratio, Specific (Mean): 0.2562
  % of P630-TMR specific Bmax (Mean): 71.2465%
[1]; P630-TMR 1000 nM
  BRET ratio, Non-specific (Mean): 0.1066
  BRET ratio, Specific (Mean): 0.3269
  % of P630-TMR specific Bmax (Mean): 99.3007%
[1]; P630-TMR 3000 nM
  BRET ratio, Non-specific (Mean): 0.1175
  BRET ratio, Specific (Mean): 0.3365
  % of P630-TMR specific Bmax (Mean): 100%
[1]; HiBit-IL23R and LgBit-IL12Rβ1, mean ± SEM
  Kd: 53.5 ± 4.4 nM
C115Y mutated IL23R
  Binding to C115Y mutant receptor: blocked specific binding
C115Y mutated IL23R; [P630-TMR] 0.8 nM
  Mean NanoBRET binding signal (Figure 7 panel b): -0.003437
C115Y mutated IL23R; [P630-TMR] 4 nM
  Mean NanoBRET binding signal (Figure 7 panel b): -0.009288
C115Y mutated IL23R; [P630-TMR] 20 nM
  Mean NanoBRET binding signal (Figure 7 panel b): -0.006407
C115Y mutated IL23R; [P630-TMR] 100 nM
  Mean NanoBRET binding signal (Figure 7 panel b): -0.004647
C115Y mutated IL23R; [P630-TMR] 500 nM
  Mean NanoBRET binding signal (Figure 7 panel b): -0.001312
C115Y mutated IL23R; [P630-TMR] 2000 nM
  Mean NanoBRET binding signal (Figure 7 panel b): 0.003535
